# Results taken from patent US9321772B2, “Substituted pyrazolo[3,4-D]pyrimidines and uses thereof” (The Regents of the University of California, priority 2011, dated 2016).
# Entries after “also recorded” stand apart in the source; their conditions may differ.
# Tests used:
# ptc>dRet^MEN2B flies = assay: Drosophila ptc>dRetMEN2B viability assay; type: in vivo; details: for rescue of ptc>dRetMEN2B viability (pupae, adults), in words: oral administration, drug mixed into food
# Text: FIG. 1A. Suppression of Ret^MEN2B-induced developmental block and whole animal toxicity were scored based on number of embryos (n) that survived as pupae (x) and adults (y). Drugs were mixed into food and fed to flies starting at larval stages.
# FIG. 1B. Percent viability of control or drug treated flies determined for pupae (x/n) and adults (y/n).
# Described herein is a Drosophila MEN2B model in which an intracellular mutation in the Drosophila Ret ortholog (dRet) was targeted to the eye (Read, R. D. et al., Genetics, 2005. 171(3): p. 1057-81). […] The screen is conducted in developing drosophila embryos. Under normal circumstances, drosophila embryos pass through four developmental steps: embryo→larvae→pupae→adult. […] We calibrated the ptc>dRetMEN2B assay to permit 50% survival to pupariation and 0% survival to adulthood. Mutated forms of RET are believed to be causative in human thyroid cancers including multiple endocrine neoplasia types 2A and 2B (MEN2A and MEN2B). The screen identifies small molecules that (a) suppress the toxicity induced by oncogenic RET and (b) allow flies to develop to functional adults. […] 64(19): p. 7099-109; Sun, L. et al., J Med Chem, 2003. 46(7): p.
# wild type flies = assay: Viability of drug treated wild-type flies; type: in vivo, Drosophila
# Text: FIG. 4B. Decreased viability of wild type flies by AD58 was mitigated by co-administration of Sorafenib or AZD6244.
# FIG. 15. Percent viability of control and drug treated wild-type flies (WT). The proportion of WT pupae and adults that survived from the total number of embryos (indicated in brackets below) are represented as column graphs. (Pupae left, Adults right)
# [1] = tested on: ptc>dRet^MEN2B wing cells; assay: Wing-based assay for transformation and cell migration (ptc>dRetMEN2B); type: in vivo, Drosophila
# Text: FIG. 4E. Quantification of ptc>dRet^MEN2B phenotypes. Invasion was established by scoring for single/groups of GFP-labeled cells that relocated away from the ptc boundary (FIG. 4C, asterisks). Basal migration was scored as indentation of the apical surface (see FIG. 2B, arrows). Proliferation was scored as significant widening of the ptc boundary. The number of wings analyzed under each condition is indicated in brackets.
# We previously developed a wing-based assay for transformation and cell migration that we utilized to explore Ras- and Src-based tumorigenesis (Vidal, M., D. E. Larson, and R. L. Cagan, Dev Cell, 2006. 10(1): p. 33-44). In this assay, the ptc-GAL4 driver directed oncogene expression in a stripe along the anterior-posterior axis; oncogene-based transformation led to over-proliferation, epithelial-to-mesenchymal transition (EMT), and cell migration away from the ptc domain.
# [2] = tested on: 765>dRet^MEN2B wings (Ras/Erk pathway activity); assay: Adult wing vein pattern assay (765>dRetMEN2B); type: in vivo, Drosophila; details: drug fed flies
# Text: The adult Drosophila wing consists of a stereotypical pattern of […] and two cross-veins; increased Ras/Erk pathway activity leads to ectopic veins (e.g., Refs. (Sawamoto, K. et al., Dev Biol, 1996. 178(1): p. 13-22; Guichard, A. et al., Development, 1999. 126(12): p. 2663-76)). Expression of oncogenic dRet throughout the developing wing (765>dRet^MEN2B) led to disruption of the overall adult wing pattern including ectopic wing veins (FIG. 3D). Reducing gene dosage of the erk ortholog rolled (765>dRet^MEN2B erk−/+) suppressed these phenotypes (FIG. 3D), confirming that wing vein formation is dependent on Ras/Erk activity.
# B-Raf = B-Raf (Homo sapiens, UniProt P15056); assay: In vitro kinase assay, B-Raf; type: biochemical; details: in vitro kinase profile, 1 μM
# Description: (§1) Using in vitro kinase assays we tested AD57, AD36, and AD58 at 1 μM for activity against approximately one-half of the human kinome (FIG. 1E): 165 Ser/Thr kinases, 91 Tyr kinases, and 10 PI kinases were assayed, totaling 266 kinases (244 distinct kinases plus 22 mutant isoforms; see FIG. 6A-6C, FIG. 7A-7F, and FIG. 8 for measured inhibition values).
# (§2) At least three major pathways are required for dRet^MEN2B-mediated transformation: Ras, Src, and glucose metabolism/PI3K (FIG. 3A; Ref (Read, R. D. et al., Genetics, 2005. 171(3): p. 1057-81)). We utilized in vitro kinase assays to assess compound activity against relevant kinases from each of these pathways, specifically Ret, B-Raf, Src, Tor, and S6K (FIG. 3B).
# Src = Src (Homo sapiens, UniProt P12931); assay: In vitro kinase assay, Src; type: biochemical; details: in vitro kinase profile, 1 μM
# Description: as §1, §2
# S6K = S6K (Homo sapiens, UniProt P23443); assay: In vitro kinase assay, S6K; type: biochemical; details: in vitro kinase profile, 1 μM
# Description: as §1, §2
# mTor = mTor (Homo sapiens, UniProt P42345); assay: In vitro kinase assay, mTor; type: biochemical; details: in vitro kinase profile, 1 μM
# Description: as §1, §2
# [3] = tested on: MEN2B (MZ) thyroid cancer cells; assay: Immunoblot analysis of drug-treated MZ cells; type: cell-based, human; details: 1 hour of treatment
# Description: (§3) FIG. 19. […] MEN2A (TT) and MEN2B (MZ) thyroid cancer cells were treated with the indicated drugs for 3 days at a final concentration of 2 μM. Cell lystates were immunoblotted for protein markers of apoptosis. Vandetanib (vand.) was included for comparison.
# (§4) FIG. 20A-20B. […] FIG. 20A. MEN2B (MZ) and FIG. 20B. MEN2A (TT) thyroid cancer cells were treated with the indicated concentrations of drug. Following 1 hour of treatment, cells were harvested and lysates prepared for immunoblotting to detect the indicated proteins. VD=vandetanib; SF=sorafenib.
# [4] = tested on: MEN2A (TT) thyroid cancer cells; assay: Immunoblot analysis of drug-treated TT cells; type: cell-based, human; details: 1 hour of treatment
# Description: as §3, §4
# Ret kinase domain = molecular target: T1, Ret kinase domain (Homo sapiens, UniProt P07949); assay: In vitro kinase assay, Ret; type: biochemical; details: in vitro kinase profile, 1 μM
# T1 construct: determined against a purified form of the Ret kinase domain
# T1 sequence (P07949 724-1016 limits assumed): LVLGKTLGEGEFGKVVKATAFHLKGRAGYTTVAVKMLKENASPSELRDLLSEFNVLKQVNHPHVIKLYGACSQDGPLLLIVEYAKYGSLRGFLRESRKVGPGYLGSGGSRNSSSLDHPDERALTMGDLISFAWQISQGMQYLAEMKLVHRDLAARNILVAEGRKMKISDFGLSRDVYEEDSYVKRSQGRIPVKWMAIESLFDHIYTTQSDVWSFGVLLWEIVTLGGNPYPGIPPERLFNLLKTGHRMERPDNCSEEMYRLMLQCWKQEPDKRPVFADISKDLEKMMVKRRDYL
# Description: FIG. 1D. […] Half maximal inhibitory concentrations (IC50) were determined against a purified form of the Ret kinase domain.
# as §1, §2
# [5] = tested on: MZ-CRC-1 (MEN2B) cancer cell line; assay: MZ-CRC-1 cell viability (MTT assay); type: cell-based, human
# [6] = tested on: TT cell tumors in athymic nu/nu mice; assay: MEN2 (TT) mouse xenograft model; type: in vivo; details: nude mice transplanted with TT cells; oral gavage; median per group
# Description: FIG. 11. […] TT thyroid cancer cells were implanted into athymic nu/nu mice subcutaneously into the right flank under the conditions listed. Upon establishment of tumors, drugs were administered by oral gavage (5 days ON/2 days OFF schedule). Tumors were measured using digital calipers. […] VD=vandetanib.
# FIG. 18A-18D. […] FIG. 18A. MEN2B (MZ) thyroid cancer cells were treated with the indicated concentrations of each inhibitor (7 days) and cell viability was quantitated by MTT assay. FIG. 18B. MEN2A (TT) thyroid cancer cells were treated with the indicated concentrations of each inhibitor (7 days) and cell viability was quantitated by MTT assay. FIG. 18C. […] Change in tumor volume was calculated per mouse. Values shown are the median percent change per group. 20 and 10 animals for vehicle and drug treated mice, respectively, were analyzed. FIG. 18D. Body weight measurements of AD80, Vandetanib (VD) and vehicle treated nude mice transplanted with TT cells. Values shown are the median of 20 and 10 animals for vehicle and drug treated mice, respectively.
# TT-based tumors were grown for 46 days in athymic nu/nu male mice prior to drug administration.
# B-Raf, sequence (P15056 whole entry, canonical isoform): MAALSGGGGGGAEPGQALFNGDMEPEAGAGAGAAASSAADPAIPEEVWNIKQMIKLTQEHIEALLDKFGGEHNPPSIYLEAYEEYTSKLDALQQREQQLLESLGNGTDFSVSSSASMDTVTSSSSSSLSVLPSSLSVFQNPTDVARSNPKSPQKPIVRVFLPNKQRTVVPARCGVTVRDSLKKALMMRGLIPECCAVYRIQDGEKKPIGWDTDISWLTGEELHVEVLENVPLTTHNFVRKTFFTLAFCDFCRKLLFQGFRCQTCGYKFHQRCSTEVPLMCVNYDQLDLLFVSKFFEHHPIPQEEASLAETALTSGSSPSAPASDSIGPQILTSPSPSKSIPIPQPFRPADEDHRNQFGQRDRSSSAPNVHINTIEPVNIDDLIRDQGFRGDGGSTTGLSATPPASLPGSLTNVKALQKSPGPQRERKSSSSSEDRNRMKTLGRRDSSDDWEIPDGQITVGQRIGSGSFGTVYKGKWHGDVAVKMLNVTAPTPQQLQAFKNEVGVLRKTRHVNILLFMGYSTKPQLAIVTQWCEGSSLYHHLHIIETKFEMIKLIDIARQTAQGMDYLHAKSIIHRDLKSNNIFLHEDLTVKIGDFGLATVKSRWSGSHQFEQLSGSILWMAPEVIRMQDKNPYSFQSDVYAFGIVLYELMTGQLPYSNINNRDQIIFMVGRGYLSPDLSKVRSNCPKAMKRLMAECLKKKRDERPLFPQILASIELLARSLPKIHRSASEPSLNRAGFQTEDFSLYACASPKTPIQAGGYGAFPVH
# S6K, sequence (P23443 whole entry): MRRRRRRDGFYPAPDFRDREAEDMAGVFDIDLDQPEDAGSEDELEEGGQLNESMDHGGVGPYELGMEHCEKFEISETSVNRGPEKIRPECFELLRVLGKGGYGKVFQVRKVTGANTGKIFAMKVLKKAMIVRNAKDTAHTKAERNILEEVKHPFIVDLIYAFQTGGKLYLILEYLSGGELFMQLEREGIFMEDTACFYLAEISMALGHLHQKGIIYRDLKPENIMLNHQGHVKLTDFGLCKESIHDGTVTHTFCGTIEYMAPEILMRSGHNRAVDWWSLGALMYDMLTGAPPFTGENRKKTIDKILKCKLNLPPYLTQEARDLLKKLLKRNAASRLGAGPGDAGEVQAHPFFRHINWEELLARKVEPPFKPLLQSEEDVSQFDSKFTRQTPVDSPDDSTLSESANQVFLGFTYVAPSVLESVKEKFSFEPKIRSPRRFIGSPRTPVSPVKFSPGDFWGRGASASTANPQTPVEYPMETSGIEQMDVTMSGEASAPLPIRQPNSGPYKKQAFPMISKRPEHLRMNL
# Src, sequence (P12931 whole entry): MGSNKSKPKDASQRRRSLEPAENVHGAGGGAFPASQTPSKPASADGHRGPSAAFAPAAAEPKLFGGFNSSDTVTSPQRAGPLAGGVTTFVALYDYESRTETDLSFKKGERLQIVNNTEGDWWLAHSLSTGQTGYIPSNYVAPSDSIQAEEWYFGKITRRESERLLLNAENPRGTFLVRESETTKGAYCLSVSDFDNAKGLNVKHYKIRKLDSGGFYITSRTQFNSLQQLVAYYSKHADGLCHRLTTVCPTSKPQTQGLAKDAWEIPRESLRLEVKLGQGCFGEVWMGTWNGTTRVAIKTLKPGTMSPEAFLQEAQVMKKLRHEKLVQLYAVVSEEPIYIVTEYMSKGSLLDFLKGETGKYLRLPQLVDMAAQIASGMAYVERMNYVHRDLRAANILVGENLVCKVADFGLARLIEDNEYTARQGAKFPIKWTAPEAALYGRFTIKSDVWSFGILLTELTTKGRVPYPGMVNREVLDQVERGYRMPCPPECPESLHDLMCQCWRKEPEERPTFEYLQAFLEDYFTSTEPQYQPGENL
Compound,"rescue of ptc>dRetMEN2B viability (pupae, adults), in words (ptc>dRet^MEN2B flies)","suppression of dRetMEN2B-induced proliferation, EMT, invasion/basal migration ([1]; oral administration)","B-Raf (Raf) inhibition, in words (B-Raf)","Src inhibition, in words (Src)","S6K inhibition, in words (S6K)","mTor inhibition, in words (mTor)",other results
CC(C)n1nc(-c2ccc(NC(=O)Nc3ccccc3)cc2)c2c(N)ncnc21 [AD58],significant toxicity without detectable efficacy,failed to prevent invasion/basal migration and not and did not suppress migration,much weaker inhibitor,strongly inhibited,much weaker inhibitor,more potent; also recorded: stronger inhibitor,"effect of reducing dTor on drug efficacy/toxicity (ptc>dRet^MEN2B flies; ptc>dRetMEN2B dTor-/+): enhanced the toxicity; effect of reducing erk gene dosage on drug efficacy in viability assay (ptc>dRet^MEN2B flies; ptc>dRetMEN2B, erk-/+): considerably enhanced the efficacy; whole animal toxicity (wild type flies; fed to ptc>dRetMEN2B and wild type flies): significant whole animal toxicity; invasion and migration of dRetMEN2B-transformed cells ([1]; co-treatment AD58 plus Sorafenib): significant suppression of invasion and migration; also recorded: blocked; basal phospho-Src in wing epithelium ([1]; oral administration): prevented basal phospho-Src accumulation; ectopic wing vein / wing pattern phenotype [2]: slightly but consistently enhanced; phospho-Ret and downstream biomarkers [3]: potent inhibitors; phospho-Ret and downstream biomarkers [4]: potent inhibitors"
CC(C)n1nc(-c2ccc(NC(=O)Nc3ccc(Cl)c(C(F)(F)F)c3)cc2)c2c(N)ncnc21 [AD81],improved rescue relative to AD57,significantly improved suppression,inhibited,inhibited,inhibited,not and greatly reduced mTor activity and lack significant inhibitory activity,"Ret inhibition, in words (Ret kinase domain): inhibited"
"Cn1cnc2c(F)c(Nc3ccc(Br)cc3Cl)c(C(=O)NOCCO)cc21 [AZD6244, reference compound]",did not rescue viability,,,,,,AD58-mediated toxicity in wild type flies on co-feeding with the named drug (wild type flies; in vivo): almost completely suppressed
"Nc1ncnc2c1c(-c1cnc3[nH]ccc3c1)nn2C1CCCC1 [PP121, reference compound]",,limited ability to significantly rescue the transformation phenotype and not,,,,,"inhibition of MZ-CRC-1 cell viability / proliferation, in words [5]: levels approaching AD57"
"CNC(=O)c1cc(Oc2ccc(NC(=O)Nc3ccc(Cl)c(C(F)(F)F)c3)cc2)ccn1 [Sorafenib, reference compound]",stronger; also recorded: rescued some animals to adulthood but did not significantly increase the proportion that developed to pupariation,measurable rescue that was nonetheless less than AD57; also recorded: did not suppress migration,,,,,"notum, scutellum and cuticle defects of ptc>dRetMEN2B adults (ptc>dRet^MEN2B flies; drug fed flies): weakly suppressed; also recorded: some cuticle defects; AD58-mediated toxicity in wild type flies on co-feeding with the named drug (wild type flies; co-feeding with AD58): almost completely suppressed"
"COc1cc2c(Nc3ccc(Br)cc3F)ncnc2cc1OCC1CCN(C)CC1 [Vandetanib, reference compound]",,,,,,,reduction of tumor progression relative to vehicle [6]: 1.9 fold
